According to US20260048021A1, “NEUTRAL LIPID AND LIPID NANOPARTICLE” (National University Corporation Hokkaido University, priority 2022, published 2026):

Assays:
[1] = Evaluation of lipid polymorphism by 31P NMR spectroscopy; format: physicochemical; conditions: DOPC/lipid=50/50 (mol %), hydrated with PBS(−), 25° C.
Description: The spectrum of a lipid membrane by ^31P NMR spectroscopy differs depending on the phase. Therefore, analysis of a lipid membrane composed of DOPC and a lipid under evaluation was performed by ^31P NMR spectroscopy, the polymorphism of the phase state of the lipid membrane was evaluated from the obtained spectrum, and the ability of the lipid under evaluation to destroy the DOPC membrane was evaluated.
Specifically, DOPC and a lipid under evaluation (DOPE or TOT-10) were mixed at a molar ratio of 1:1 (16 μmol of total lipid) and were dissolved in 300 μL of chloroform, and then the solvent was removed by a distillation apparatus (rotovap) to form a lipid membrane. The resulting lipid membrane was hydrated with 500 μL of PBS(−) at 60° C. to obtain a sample for measurement.
Next, the sample was transferred to an NMR tube, and a proton-decoupled ^31P NMR spectrum was obtained using an ECA500 apparatus manufactured by JEOL Ltd. Acquisition parameters included a […], a spectral width of 280 kHz (for ECX 400P) with 32,768 data points, and an interpulse delay time of 1 second. The temperature was controlled at 25° C. Prior to Fourier transform, exponential multiplication corresponding to a line broadening of 50 Hz was applied to the free induction decay. Chemical shifts were referenced to 85% phosphoric acid (H3PO4) as an external standard. […]

factor VII (F7) = conditions: mouse liver; cited from earlier work

Compound | phase of lipid membrane seen in 31P NMR spectrum [1] | ED50 in factor VII (F7) knockdown (factor VII (F7)) [mg siRNA/kg]
CCCCCCCC/C=C\CCCCCCCC(=O)OC[C@H](COP(=O)(O)OCCN)OC(=O)CCCCCCC/C=C\CCCCCCCC [DOPE, 1,2-dioleoyl-sn-glycero-3-phosphoethanolamine] | a peak derived from the lamellar phase was observed | –
CCCCC/C=C\C/C=C\CCCCCCCCOC1(OCCCCCCCC/C=C\C/C=C\CCCCC)CCN(C)CC1 [YSK05] | – | 0.06
CCCCCCCC/C=C\CCCCCCCC(=O)OCC(COC(=O)CCCCCCC/C=C\CCCCCCCC)(COC(=O)CCCCCCC/C=C\CCCCCCCC)NC(=O)CCC[N+](C)(C)CC(=O)[O-] [TOT-10, 2-((4-((1,3-bis(oleoyloxy)-2-((oleoyloxy)methyl)propan-2-yl)amino)-4-oxobutyl)dimethylammonio)acetate] | a peak derived from the hexagonal phase or isotropic phase was observed instead of a peak derived from the lamellar phase | –
CCCCC/C=C\C/C=C\CCCCCCCCC(CCCCCCCC/C=C\C/C=C\CCCCC)OC(=O)CCCN(C)C [DLin-MC3-DMA] | – | 0.005
